Measurements published in US20190365742A1, “AZOLE TREATMENT REGIMEN WITH REDUCED HEPATOTOXICITY” (HEDGEPATH PHARMACEUTICALS, INC., priority 2018, published 2019).

Test: plasma concentration of itraconazole required for clinical benefit in humans with cancer
Assay type: in vivo
Conditions: human, after 4 weeks of therapy, read-out: minimum plasma trough level required to have a clinically significant effect
Method: Optionally, the treatment method further comprises measuring the plasma level of the HhP inhibitor, or a metabolite thereof, in the subject one or more times. In some embodiments, the measuring is carried out one or more times about 4 weeks after initiation of treatment with the HhP inhibitor. Observations concerning the desirability of achieving a plasma trough level of at least about 1,000 ng/mL of the HhP inhibitor are described in U.S. Pat. No. 9,192,609 (“Treatment and Prognostic Monitoring of Proliferation Disorders Using Hedgehog Pathway Inhibitors”; Virca and O'Donnell), which is incorporated herein by reference in its entirety.
In particular, the minimum plasma trough level after 4 weeks of therapy required to have a clinically significant effect was at least 1000 ng/ml. […] Nevertheless, there can be side-effects peculiar to such high doses such as hypertension, peripheral edema, and hypokalemia, which seem to be a result of an increased production of mineralocorticoid. These side effects associated with these high doses of itraconazole can be effectively managed by giving a selective mineralocorticoid antagonist, such as eplerenone. Accordingly, in some embodiments, the method further comprises administering eplerenone or other mineralocorticoid inhibitor. […]

Compound: CCC(C)n1ncn(-c2ccc(N3CCN(c4ccc(OCC5COC(Cn6cncn6)(c6ccc(Cl)cc6Cl)O5)cc4)CC3)cc2)c1=O (stereo not shown) [itraconazole]
- concentration at 4 weeks: ≥ 1000 ng/mL
